This is an account of results in patent US7972829B2, “Process for producing transglutaminase” (Ajinomoto Co., Inc., priority 1999, dated 2011).

Data set [1] concerns proline specific peptidase (svPEP). The data set is described as follows: Effects of inhibitors on the activity of proline specific peptidase (svPEP), Ala-Ala-Pro-pNA as substrate. The data set is classed as biochemical, S. mobaraense IFO13819. Particulars: for inhibition of svPEP activity (in words): Ala-Ala-Pro-pNA as substrate.
The test system is the same in data set [2]. The data set is described as follows: Substrate specificity of svPEP (cleaving activity on pNA-, βNA-conjugated peptides and peptides). It is filed as biochemical, S. mobaraense IFO13819. Particulars: for relative activity (specificity of svPEP for peptide substrate): 20 mM sodium phosphate buffer pH 6.5, 37° C., 5 min, AAP-pNA = 100; for substrate recognition by svPEP (in words): cleavage at carboxyl terminal side of proline residue.

A short description of data set [3]: Transglutaminase activity by hydroxamate method. It is filed as biochemical.
A short description of data set [4]: Isoelectric point of svPEP. It is filed as physicochemical.
Data set [5] can be described thus: Enzyme properties of svPEP (optimum pH, pH stability, optimum temperature, temperature stability). The data set is classed as biochemical. How it is done:
were used as a buffer, respectively. The enzyme was allowed to act on Ala-Ala-Pro-pNA as the substrate at 30° C. for 5 minutes. Relative activity of the enzyme in each buffer was calculated compared to the activity in 20 mM sodium phosphate buffer, pH6.5 as 100%. […] (iii) pH Stability
0.15 M GTA buffers (buffers composed of 3,3-dimethylglutaric acid, tris(hydroxymethyl)aminomethane, 2-amino-2-methyl-1,3-propanediol) ranging between pH 3 and pH10 were used. To 20 µl of purified enzyme solution, 40 μl of the buffer at each pH was added and the reaction mixtures were allowed to stand overnight at 4° C., then adjusted to pH 7.0 and the volume was made up to 120 μl. To 50 μl aliquots, Ala-Ala-Pro-pNA was added and the reaction was performed at 30° C. for 5 minutes. Relative amounts of substrate which the enzyme decomposed at each pH were considered to be the remaining activity compared to the activity of the enzyme as 100% when the enzyme was stored under the same condition as described above except for pH 7.0.
To 50 μl of purified enzyme solution, 0.5 ml of 20 mM sodium phosphate buffer (pH 6.5) was added and Ala-Ala-Pro-pNA was added up to 0.25 mM and the mixture was maintained at 20° C.-60° C. for 5 minutes to effect decomposition reaction. Relative amount of substrate which the enzyme decomposed was considered to be the relative activity at each temperature, compared to the amount of substrate decomposition at 25° C. as 100% activity.
To 50 μl of purified enzyme solution, 0.5 ml of 20 mM sodium phosphate buffer (pH 6.5) was added. The mixture was maintained at 4° C. or 20° C.-60° C. for 15 minutes and then cooled on ice. Ala-Ala-Pro-pNA was added up to 0.25 mM and the mixture was maintained at 30° C. for 5 minutes. The remaining activity was calculated assuming the activity of the enzyme which was treated at 4° C. to be 100%.

The mark [6] stands for this setting: compound 1 mM, 10 min room temperature, then Ala-Ala-Pro-pNA, 30° C., 5 min, activity without compound = 100%.
The mark [7] stands for this setting: compound 10 mM, 10 min room temperature, then Ala-Ala-Pro-pNA, 30° C., 5 min, activity without compound = 100%.

Entries after “also recorded” stand apart in the source; their conditions may differ. Read-outs that look alike come from different tables or passages of the source. *1 amine or outer side, *2 acyl side, *3 side chain or, on linkers, in order; H or OH if unused. Where a SMILES comes first, the peptide text is derived from it. Primed or numbered codes have the meaning given here. Where no end group is shown, it is not given here. [ ]: non-standard residue; d: D form. The star is where a group is joined. Sta = CC(C)C[C@H](N)[C@@H](O)CC(=O)O; pNA = O=[N+]([O-])c1ccc(N*)cc1; Suc = O=C(CCC(=O)[*:2])[*:1]; Isovaleryl = CC(C)CC(=O)*; code Z = not defined here; βNA = c1ccc2cc(N*)ccc2c1; Bz′ = not defined here; Cbz = O=C(OCc1ccccc1)*

For `O=C[C@@H]1CCCN1C(=O)[C@@H]1CCCN1C(=O)OCc1ccccc1` [Z-(S)Pro-(S)Prolinal] (Cbz-Pro-Pro-aldehyde), the relative activity in data set [1] (setting [6]) is on record as 111.2%.
AAA-pNA: the “relative activity (specificity of svPEP for peptide substrate)” value in data set [2] was 8.5%.
Take `O=C[C@@H]1CCCN1C(=O)[C@@H]1CCCN1C(=O)OCc1ccccc1` [Z-Pro-(S)Prolinal] (Cbz-Pro-Pro-aldehyde): the relative activity in data set [1] (setting [6]) is given as 105.8%.
Take `O[C@H](CS)[C@H](O)CS` (racemic) [Dithiothreitol]: the relative activity in data set [1] (setting [7]) came to 102.5%.
Regarding `CC(C)CC(=O)N[C@H](C(=O)N[C@H](C(=O)N[C@@H](CC(C)C)[C@@H](O)CC(=O)N[C@@H](C)C(=O)N[C@@H](CC(C)C)[C@@H](O)CC(=O)O)C(C)C)C(C)C` [Pepstatin] (Isovaleryl-VV[Sta]A[Sta]-OH), the relative activity in data set [1] (setting [6]) was 165.7%.
On the same count and under the same terms, as for `O=C[C@@H]1CCCN1C(=O)[C@@H]1CCCN1C(=O)OCc1ccccc1` [Z-Pro-Prolinal] (Cbz-Pro-Pro-aldehyde), the figure is 99.7%.
With p-pNA, in data set [2], the “relative activity (specificity of svPEP for peptide substrate)” value came to 0.04%.
The same measure, in the same setting: as for “Suc-AAPF-pNA [p-nitroanilide peptide substrate for svPEP]”, the figure is 0.01%.
On to Phe-Arg-Ala-Pro-pNA (FRAP-pNA), for which, in data set [2], the “relative activity (specificity of svPEP for peptide substrate)” value was determined as 49.0% and the “substrate recognition by svPEP (in words)” value is “preferably recognized”.
In the same order, the values of “Ala-Phe-Pro-pNA [AFP-pNA, p-nitroanilide peptide substrate for svPEP]” are 26.3% and “preferably recognized”.
For the molecule “Bz-Phe-Val-Arg-pNA ({Bz′}-Phe-Val-Arg-pNA) [Bz-FVR-pNA, p-nitroanilide peptide substrate]”, in data set [2], the “relative activity (specificity of svPEP for peptide substrate)” value was found to be 0.002%.
Turning to “Z-AGP-βNA ({code Z}-Ala-Gly-Pro-βNA; reading uncertain; also: printed as Z-AGP-βNA) [β-naphtylamido peptide substrate for svPEP]”, in data set [2], the “relative activity (specificity of svPEP for peptide substrate)” value is recorded as 0.78%.
The same measure, in the same setting: as for “AAF-pNA (Ala-Ala-Phe-pNA) [p-nitroanilide peptide substrate for svPEP]”, the figure is 4.1%.
Take `c1cnc2c(c1)ccc1cccnc12` [1,10-Phenanthroline]: the relative activity in data set [1] (setting [6]) is 92.5%.
For the molecule “PSFRAP-pNA [p-nitroanilide peptide substrate for svPEP]”, the “relative activity (specificity of svPEP for peptide substrate)” value in data set [2] came to 0.2%.
In the case of `CCN1C(=O)C=CC1=O` [N-Ethylmaleimide], in data set [1] (setting [6]), the relative activity was found to be 98.3%.
For “SFRAP-pNA [p-nitroanilide peptide substrate for svPEP]”, in data set [2], the “relative activity (specificity of svPEP for peptide substrate)” value is 1.23%.
`NC(=O)CI` [Iodoacetamide]: in data set [1], the relative activity is 87%.
As to `O=C(O)CN(CCN(CC(=O)O)CC(=O)O)CC(=O)O` [EDTA], the relative activity in data set [1] (setting [7]) is listed as 105.2%.
`O=C(O)c1cc[c]([Hg][Cl])cc1` [p-Chloromercuribenzoic acid]: the “inhibition of svPEP activity (in words)” value in data set [1] is “inhibited to some extent”. In addition, the relative activity in data set [1] (setting [6]) came out at 87.1%.
Consider `O=S(=O)(F)Cc1ccccc1` [Phenylmethylsulfonylfluoride], for which the entries for the “inhibition of svPEP activity (in words)” value in data set [1] (listed as phenyl methylsulfonylfluoride) and in data set [1] (listed as phenylmethylsulfonyl fluoride) were “comparatively strong inhibition” and “inhibited”, respectively. For the same molecule, the relative activity in data set [1] (setting [6]) is given as 39.7%.
On to “Aminoethylbenzenesulfonylfluoride hydrochloride”, for which, in data set [1] (hydrochloride), the “inhibition of svPEP activity (in words)” value is on record as “comparatively strong inhibition; also recorded: inhibited”. For the same molecule, in data set [1] (compound 4 mM, 10 min room temperature, then Ala-Ala-Pro-pNA, 30° C., 5 min, activity without compound = 100%), the relative activity amounted to 59.9%.
“Ala-Ala-Pro-pNA [AAP-pNA, p-nitroanilide peptide substrate for svPEP]”: in data set [2], the “relative activity (specificity of svPEP for peptide substrate)” value is 100% and the “substrate recognition by svPEP (in words)” value is given as “preferably recognized”.
As to `CC(C)C[C@H](NC(=O)[C@@H](O)[C@H](N)Cc1ccccc1)C(=O)O` [Bestatin], the relative activity in data set [1] (setting [6]) came out at 97.6%.
On to “AAPL-pNA [p-nitroanilide peptide substrate for svPEP]”, for which the “relative activity (specificity of svPEP for peptide substrate)” value in data set [2] is reported as 0.3%.
Take `CC(C)C[C@H](NC(=O)[C@@H](NC(=O)N[C@@H](Cc1ccccc1)C(=O)O)[C@@H]1CCN=C(N)N1)C(=O)N[C@H](C=O)Cc1ccccc1` [Chymostatin]: in data set [1], the relative activity was determined as 84.9%.
As to “Z-GAP-βNA ({code Z}-Gly-Ala-Pro-βNA; reading uncertain; also: printed as Z-GAP-βNA) [β-naphtylamido peptide substrate for svPEP]”, the “relative activity (specificity of svPEP for peptide substrate)” value in data set [2] is reported as 1.2%.

B1: transglutaminase: S. mobaraense transglutaminase secreto-produced as pro-form in C. glutamicum ATCC13869, pro-structure part cleaved by protease (protein)
chain: DSDDRVTPPAEPLDRMPDPYRPSYGRAETVVNNYIRKWQQVYSHRDGRKQQMTEEQREWLSYGCVGVTWVNSGQYPTNRLAFASFDEDRFKNELKNGRPRSGETRAEFEGRVAKESFDEEKGFQRAREVASVMNRALENAHDESAYLDNLKKELANGNDALRNEDARSPFYSALRNTPSFKERNGGNHDPSRMKAVIYSKHFWSGQDRSSSADKRKYGDPDAFRPAPGTGLVDMSRDRNIPRSPTSPGEGFVNFDYGWFGAQTEADADKTVWTHGNHYHAPNGSLGAMHVYESKFRNWSEGYSDFDRGAYVITFIPKSWNTAPDKVKQGWP
modifications: Streptoverticillium mobaraense
notes: S. mobaraense transglutaminase secreto-produced as pro-form in C. glutamicum ATCC13869, pro-structure part cleaved by protease
As for B1, the specific activity result was “about 20 U/mg” in data set [3] (after Dispase digestion (37° C., pH 7.5, 1 hour) of culture supernatant of C. glutamicum ATCC13869 harboring pVKPTG1-4 or pPKPTG1-4); “about 20 U/mg” in data set [3] (after Dispase digestion (37° C., pH 7.5, 1 hour) of culture supernatant of C. glutamicum harboring pVKSPTG1, pVTSPTG1, pPKSPTG1 or pPTSPTG1); “about 20 U/mg” in data set [3] (culture supernatant of C. glutamicum harboring pVSS1 (SAMP45) and pPKSPTG1, Phe-Arg-Ala-Pro added at N-terminal); “about 20 U/mg” in data set [3] (culture supernatant of C. glutamicum harboring pVSS1 and pPKSPTG11 or pPKSPTG12); “about 20 U/mg” in data set [3] (culture supernatant of C. glutamicum harboring pVSSSP1 (SAMP45 and svPEP) and pPKSPTG1); “about 20 U/mg” in data set [3] (pro-structure cleaved with culture medium of S. mobaraense IFO13819, 30° C., 6 hours). Besides, the specific activity entry in data set [3] (pro-structure cleaved with washed cells of S. mobaraense, 30° C., 6 hours) is listed as “about 20 U/mg”.

B2: svPEP: proline-specific peptidase produced by S. mobaraense IFO13819; mature sequence SEQ ID NO:40 (protein)
chain: QADIKDRILKIPGMKFVEEKPYQGYRYLVMTYRQPVDHRNPGKGTFEQRFTLLHKDTDRPTVFFTSGYNVSTNPSRSEPTRIVDGNQVSMEYRFFTPSRPQPADWSKLDIWQAASDQHRLYQALKPVYGKNWLATGGSKGGMTATYFRRFYPNDMNGTVAYVAPNDVNDKEDSAYDKFFQNVGDKACRTQLNSVQREALVRRDEIVARYEKWAKENGKTFKVVGSADKAYENVVLDLVWSFWQYHLQSDCASVPATKASTDELYKFIDDISGFDGYTDQGLERFTPYYYQAGTQLGAPTVKNPHLKGVLRYPGINQPRSYVPRDIPMTFRPGAMADVDRWVREDSRNMLFVYGQNDPWSGEPFRLGKGAAARHDYRFYAPGGNHGSNIAQLVADERAKATAEVLKWAGVAPQAVQKDEKAAKPLAPFDAKLDRVKNDKQSALRP
modifications: Streptoverticillium mobaraense
On to B2, for which, in data set [4], the isoelectric point is 10.2. The “optimum pH” value in data set [5] (Ala-Ala-Pro-pNA, 30° C., 5 min) is 6.0-6.5. Besides, the “pH stability (stable at pH)” value in data set [5] (overnight at 4° C. in 0.15 M GTA buffers pH 3 to 10) is recorded as 4-9. For the same molecule, in data set [5] (pH 6.5, 20° C.-60° C., 5 min), the optimum temperature is 25-30 °C. In addition, in data set [5] (pH 6.5, 15 min at 4° C. or 20° C.-60° C.), the “temperature stability (stable below)” value was “below 20 °C”.
